Data published in paper PMC2151269, “Broad phase II and pharmacokinetic study of methoxy-morpholino doxorubicin (FCE 23762-MMRDX) in non-small-cell lung cancer, renal cancer and other solid tumour patients” (British Journal of Cancer, 1998).
Where “and” joins values, the source holds several entries; their conditions need not be identical. Equal entries are not always repeated.

Experiments:
[1] = test system: metastatic or unresectable solid tumour patients; assay: Haematological toxicity (CTC grading, blood cell counts) in broad phase II study; type: in vivo, human; conditions: for Cycles (%) with anaemia / Cycles (%) with leucopenia / Cycles (%) with neutropenia / Cycles (%) with thrombocytopenia: n = 126 cycles; for Median platelet nadir: 26 patients who received at least three cycles
Description: British Jourmal of Cancer (1998) 77(1), 139-146 ? 1998 Cancer Research Campaign Broad phase 11 and pharmacokinetic study of methoxy-morpholino doxorubicin (FCE 23762-MMRDX) in non-small-cell lung cancer, renal cancer and other solid tumour patients M Bakker', JP Droz2, AR Hanauske3, J Verweij4, AT van Oosterom5, HJM Groen', MA Pacciarini6, L Domenigoni6, F van Weissenbruch', E Pianezzola6 and EGE de Vries' 'University Hospital Groningen, The Netherlands; 2Centre L6on Berard, Lyon, France; 3Med. […] Patients received a maximum of six cycles. […] Limitations of the clinical value of anthracyclines are their toxicity profile, especially irreversible, dose-related cardiotoxicity, and intrinsic or acquired tumour resis- tance. Various mechanisms play a role in tumour cell resistance to anthracyclines, including overexpression of drug efflux pumps such as P-glycoprotein, decreased levels of the target enzyme topoisomerase II, and an increase in cellular detoxifying capacity (Kaye and Merry, 1985; Deffie et al, 1989; De Jong et al, 1990; Ford and Hait, 1990; Meijer et al, 1990; Zaman et al, 1994). The morpholinyl anthracyclines have been developed in the course of research aimed at identifying new anthracyclines with at least partially novel modes of action in addition to activity against resis- tant tumours (Acton et al, 1984). […] Box 30.001, 9700 RB Groningen, The Netherlands (Figure 1).

[2] = test system: solid tumours in animal models; design: method as in Grandi et al, 1990; Ripamonti et al, 1992; conditions: similar activity by intraperitoneal, i.v. or oral route; ref Grandi et al, 1990; Ripamonti et al, 1992; cited from earlier work
[3] = 132 cycles, 48 patients, 1.5 mg m-2 i.v. bolus every 4 weeks
[4] = CTC Grade I, 1.5 mg m-2 i.v. bolus every 4 weeks
[5] = CTC Grade II, 1.5 mg m-2 i.v. bolus every 4 weeks
[6] = CTC Grade III, 1.5 mg m-2 i.v. bolus every 4 weeks
[7] = CTC Grade IV, 1.5 mg m-2 i.v. bolus every 4 weeks

Question: Which results are given for `COc1cccc2c1C(=O)c1c(O)c3c(c(O)c1C2=O)C[C@@](O)(C(=O)CO)C[C@@H]3O[C@H]1C[C@H](N2CCO[C@H](OC)C2)[C@H](O)[C@H](C)O1` [MMRDX, methoxymorpholino-doxorubicin]?
Answer: Patients hospitalized for neutropenic fever ([1]; 47 patients evaluable for haematological toxicity): Seven; CTC grade III/IV neutropenia, % of cycles [1, 3]: 27%; CTC grade III/IV thrombocytopenia, % of cycles [1, 3]: 12%; Cycles (%) with anaemia [1, 4]: 37%; Cycles (%) with leucopenia [1, 4]: 17%; Cycles (%) with neutropenia [1, 4]: 13%; Cycles (%) with thrombocytopenia [1, 4]: 11%; Cycles (%) with anaemia [1, 5]: 31%; Cycles (%) with leucopenia [1, 5]: 23%; Cycles (%) with neutropenia [1, 5]: 20%; Cycles (%) with thrombocytopenia [1, 5]: 6%; Cycles (%) with anaemia [1, 6]: 5%; Cycles (%) with leucopenia [1, 6]: 19%; Cycles (%) with neutropenia [1, 6]: 18%; Cycles (%) with thrombocytopenia [1, 6]: 6%; Cycles (%) with anaemia [1, 7]: 0%; Cycles (%) with leucopenia [1, 7]: 6%; Cycles (%) with neutropenia [1, 7]: 9%; Cycles (%) with thrombocytopenia [1, 7]: 6%; Median (range) nadir haemoglobin ([1]; Cycle 1, n=47): 110(69-147) g l-1; Median (range) nadir leucocytes ([1]; Cycle 1, n=47): 3.0 (0.1-9.1) x 109 l-1; Median (range) nadir neutrophils ([1]; Cycle 1, n=47): 1.4 (<0.1-5.8) x 109 l-1; Median (range) nadir platelets ([1]; Cycle 1, n=47): 178 (8-449) x 109 l-1; Median (range) nadir platelets ([1]; Cycles 2-6, n=80): 117 (9-372) x 109 l-1; Median (range) nadir neutrophils ([1]; Cycles 2-6, n=81): 1.7 (< 0.1-6.8) x 109 l-1; Median (range) nadir haemoglobin ([1]; Cycles 2-6, n=82): 103 (69-153) g l-1; Median (range) nadir leucocytes ([1]; Cycles 2-6, n=82): 3.0 (0.1-9.8) x 109 l-1; Median platelet nadir ([1]; cycle 1): 1.78e+11 L⁻¹; Median platelet nadir ([1]; cycle 2): 1.45e+11 L⁻¹; Median platelet nadir ([1]; cycle 3): 1.08e+11 L⁻¹; Median platelet nadir ([1]; cycle 4): 1.06e+11 L⁻¹; Median platelet nadir ([1]; cycle 5): 9e+10 L⁻¹; Median platelet nadir ([1]; cycle 6): 1.17e+11 L⁻¹; Septic death ([1]; day 14 of cycle 2, grade IV neutropenia): one; Day of platelet nadir ([1]; day of cycle): 22 day and 22 (range 7-36) day; Median day of neutrophil nadir ([1]; day of cycle): 22 day and 22 (range 6-36) day; Total number of hospital admissions for haematological toxicity ([1]; excluding admission for blood cell transfusion): eight; Cycles with dose adjustments for haematological toxicity ([1]; in eight patients): 19%; Cycles delayed for haematological toxicity ([1]; in vivo): 29%; Median duration of grade IV neutropenia ([1]; range 1-14): 7 days; Median time to recovery from platelet nadir to > 100 x 109 l-1 ([1]; range 1-20): 7 days; Median time to recovery from neutrophil nadir to > 2 x 109 l-1 ([1]; range 2-22): 7 days; Median duration of grade IV thrombocytopenia ([1]; range 3-19): 11 days; Effectiveness in solid tumours in animal models [2]: as effective as doxorubicin
